Results on 2 compounds are retold here after ChEMBL document CHEMBL3046711, “Novel glitazones: glucose uptake and cytotoxic activities, and structureactivity relationships” (2012).

Structures are written as SMILES. Converted amounts (≈) assume the structure as drawn.

What is called CC50 is the concentration that lowers cell viability or growth by half.

Assay type in all cases: functional
Experiment [1] has as its system Hemi-diaphragm. Nature of the experiment: Induction of glucose uptake in Rattus norvegicus Wistar (rat) hemi-diaphragm at 2 mg after 45 min by GOD/POD enzymatic method.
The test system of experiment [2] is Hemi-diaphragm. Nature of the experiment: Induction of glucose uptake in Rattus norvegicus Wistar (rat) hemi-diaphragm at 2 mg after 45 min by GOD/POD enzymatic method in presence of insulin.
The test system of experiment [3] is A549. The experiment in a line: Cytotoxicity against Homo sapiens (human) A549 cells after 3 days by SRB assay. To be noted: A549, 72 h. (Sulforhodamine B stains cellular protein and so reports cell mass.)

As for `O=C1NC(=O)/C(=C/c2ccc(OCCOc3ccccc3Cl)cc2)S1`, the Activity in experiment [1] amounted to 6 mg/dL; in experiment [2], 22.5 mg/dL. In experiment [3], it took 100 µg/mL (≈ 266 µM) to reach half-maximal cytotoxicity (CC50).

In the case of `CN(CCOc1ccc(CC2SC(=O)NC2=O)cc1)c1ccccn1` (stereo not given) [ROSIGLITAZONE], the Activity in experiment [1] amounted to 15.5 mg/dL; in experiment [2], 37 mg/dL.
